Values quoted from earlier work as cited in article PMC7493416 (ACS Sustainable Chemistry & Engineering, 2019).

What was measured:
[1] = general statement, no reference given

| Solubility in water [1] | SMILES | Reproductive toxicity |
| --- | --- | --- |
|  | CN1CCCC1=O [NMP, N-methylpyrrolidone] | display reproductive toxicity |
| insoluble in water | O=C1CCCCCC1 [cycloheptanone] |  |
|  | CN(C)C=O [DMF, dimethylformamide] | display reproductive toxicity |
